Values joined by “and” are separate entries in the source; they are usually repeats but may differ in a detail not shown here. Equal values may be shown once. Toxic doses and inconclusive results are not listed. No stated cut-off is given here; in the data, active means T/C of 150% or more; inactive means T/C below 125%. Peptide text beside a SMILES is read from it.
Tested on: L1210 leukemia ip in BDF1 mice, survival T/C
Test: NCI In Vivo Anticancer Drug Screen. Data for tumor model L1210 Leukemia (intraperitoneal) in B6D2F1 (BDF1) mice
Settings: endpoint: mean survival time, higher = longer survival
Outline: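 Ratio derived from survival: compound-dosed mice over vehicle-dosed mice, all bearing a transplantable tumor.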

[1] = dose: 25.0 mg/kg/injection, schedule: Q01DX009 (ip), vehicle: Klucel (hydroxypropylcellulose) (HPC)
[2] = dose: 100.0 mg/kg/injection, schedule: Q04DX003 (ip), vehicle: Klucel (hydroxypropylcellulose) (HPC)
[3] = dose: 200.0 mg/kg/injection, schedule: Q04DX003 (ip), vehicle: Klucel (hydroxypropylcellulose) (HPC)
[4] = dose: 400.0 mg/kg/injection, schedule: Q04DX003 (ip), vehicle: Klucel (hydroxypropylcellulose) (HPC)
[5] = dose: 100.0 mg/kg/injection, schedule: Q04DX002 (ip), vehicle: Klucel (hydroxypropylcellulose) (HPC)
[6] = dose: 100.0 mg/kg/injection, schedule: Q01DX001 (ip), vehicle: saline
[7] = dose: 100.0 mg/kg/injection, schedule: Q01DX009 (ip), vehicle: Klucel (hydroxypropylcellulose) (HPC)
[8] = dose: 200.0 mg/kg/injection, schedule: Q01DX009 (ip), vehicle: Klucel (hydroxypropylcellulose) (HPC)
[9] = dose: 400.0 mg/kg/injection, schedule: Q01DX009 (ip), vehicle: Klucel (hydroxypropylcellulose) (HPC)
[10] = dose: 100.0 mg/kg/injection, schedule: Q04DX003 (ip), vehicle: saline
[11] = dose: 200.0 mg/kg/injection, schedule: Q04DX003 (ip), vehicle: saline
[12] = dose: 400.0 mg/kg/injection, schedule: Q04DX003 (ip), vehicle: saline
[13] = dose: 100.0 mg/kg/injection, schedule: Q01DX001 (ip), vehicle: carboxymethylcellulose (CMC)
[14] = dose: 200.0 mg/kg/injection, schedule: Q01DX001 (ip), vehicle: carboxymethylcellulose (CMC)
[15] = dose: 400.0 mg/kg/injection, schedule: Q01DX001 (ip), vehicle: carboxymethylcellulose (CMC)
[16] = dose: 200.0 mg/kg/injection, schedule: Q01DX001 (ip), vehicle: saline
[17] = dose: 400.0 mg/kg/injection, schedule: Q01DX001 (ip), vehicle: saline

Measured: T/C

Cc1nc(NCc2ccccc2)c2cc[nH]c2n1
inactive: dose: 1.56 mg/kg/injection, schedule: Q01DX009 (ip), vehicle: Klucel (hydroxypropylcellulose) (HPC) 104 % of control and 111 % of control | dose: 3.12 mg/kg/injection, schedule: Q01DX009 (ip), vehicle: Klucel (hydroxypropylcellulose) (HPC) 96 % of control and 105 % of control | dose: 3.12 mg/kg/injection, schedule: Q04DX003 (ip), vehicle: Klucel (hydroxypropylcellulose) (HPC) 106 % of control | dose: 5.0 mg/kg/injection, schedule: Q01DX001 (ip), vehicle: saline 104 % of control | dose: 6.25 mg/kg/injection, schedule: Q01DX009 (ip), vehicle: Klucel (hydroxypropylcellulose) (HPC) 103 % of control and 110 % of control | dose: 6.25 mg/kg/injection, schedule: Q04DX003 (ip), vehicle: Klucel (hydroxypropylcellulose) (HPC) 103 % of control | dose: 10.0 mg/kg/injection, schedule: Q01DX001 (ip), vehicle: saline 104 % of control | dose: 12.5 mg/kg/injection, schedule: Q01DX009 (ip), vehicle: Klucel (hydroxypropylcellulose) (HPC) 100 % of control and 105 % of control | dose: 12.5 mg/kg/injection, schedule: Q04DX003 (ip), vehicle: Klucel (hydroxypropylcellulose) (HPC) 111 % of control | dose: 20.0 mg/kg/injection, schedule: Q01DX001 (ip), vehicle: saline 116 % of control | [1] 93 % of control and 97 % of control | dose: 25.0 mg/kg/injection, schedule: Q04DX003 (ip), vehicle: Klucel (hydroxypropylcellulose) (HPC) 103 % of control | dose: 40.0 mg/kg/injection, schedule: Q01DX001 (ip), vehicle: saline 104 % of control | dose: 80.0 mg/kg/injection, schedule: Q01DX001 (ip), vehicle: saline 110 % of control

CCCCCCCCCCCCCCCOc1ccc(C=Nc2ccc(C)cc2)cc1
inactive: [2] 93 % of control | [3] 102 % of control | [4] 102 % of control

O=S1(=O)CCCC1C(O)(c1ccccc1)c1ccccc1 (centres undefined)
inactive: dose: 100.0 mg/kg/injection, schedule: Q04DX003 (ip), vehicle: saline with Tween-80 97 % of control | dose: 200.0 mg/kg/injection, schedule: Q04DX003 (ip), vehicle: saline with Tween-80 92 % of control | dose: 400.0 mg/kg/injection, schedule: Q04DX003 (ip), vehicle: saline with Tween-80 94 % of control

CC1(C)CC(=O)C2C(C1)Nc1ccccc1NC2c1cccc([N+](=O)[O-])c1 (centres undefined)
inactive: [5] 109 % of control | dose: 200.0 mg/kg/injection, schedule: Q04DX002 (ip), vehicle: Klucel (hydroxypropylcellulose) (HPC) 103 % of control

COc1cccc(CN(C)C)c1C(C)(C)O
inactive: dose: 50.0 mg/kg/injection, schedule: Q01DX001 (ip), vehicle: saline 97 % of control | [6] 95 % of control

CCCCCCCCCCCCCCCCCCNC(=O)N(CC)c1ccccc1C
inactive: [7] 101 % of control | [2] 93 % of control | [8] 98 % of control | [3] 90 % of control | [9] 101 % of control | [4] 92 % of control

c1ccc(-c2ccno2)cc1
inactive: dose: 6.25 mg/kg/injection, schedule: Q01DX009 (ip), vehicle: saline with Tween-80 98 % of control | dose: 12.5 mg/kg/injection, schedule: Q01DX009 (ip), vehicle: saline with Tween-80 106 % of control | dose: 25.0 mg/kg/injection, schedule: Q01DX009 (ip), vehicle: saline with Tween-80 107 % of control | dose: 75.0 mg/kg/injection, schedule: Q01DX009 (ip), vehicle: saline with Tween-80 90 % of control

CC(=O)NCC1OC(COCc2ccccc2)C(OCc2ccccc2)C1OCc1ccccc1 (centres undefined)
inactive: [2] 107 % of control | [3] 96 % of control | [4] 107 % of control

O=C1C=C(N2CCCC2)CCC1
inactive: dose: 75.0 mg/kg/injection, schedule: Q01DX001 (ip), vehicle: saline 107 % of control | dose: 150.0 mg/kg/injection, schedule: Q01DX001 (ip), vehicle: saline 109 % of control

NC(CSCc1ccc([N+](=O)[O-])cc1)C(=O)O (centres undefined)
inactive: [10] 102 % of control | [11] 105 % of control | [12] 96 % of control

CCNC(=O)N=C1SCCS1
inactive: dose: 100.0 mg/kg/injection, schedule: Q04DX002 (ip), vehicle: saline 118 % of control | dose: 200.0 mg/kg/injection, schedule: Q04DX002 (ip), vehicle: saline 118 % of control | dose: 400.0 mg/kg/injection, schedule: Q04DX002 (ip), vehicle: saline 96 % of control

O=c1[nH]nc(S(=O)(=O)c2ccccc2)c(=O)[nH]1
inactive: [13] 95 % of control | [14] 95 % of control | [15] 95 % of control

c1ccc(-c2nc3ccccc3o2)cc1
inactive: [7] 92 % of control | [2] 92 % of control | [8] 97 % of control | [3] 95 % of control | [9] 92 % of control | [4] 103 % of control

CCC(C)(CO)N=Cc1ccccc1O.CCC(C)(O)/N=C/c1ccccc1O.[Cu].[Cu] (centres undefined)
inactive: dose: 9.5 mg/kg/injection, schedule: Q01DX001 (ip), vehicle: other 100 % of control | dose: 19.0 mg/kg/injection, schedule: Q01DX001 (ip), vehicle: other 97 % of control | dose: 38.0 mg/kg/injection, schedule: Q01DX001 (ip), vehicle: other 86 % of control

O=C(Nc1ccccc1)Oc1ccc(OC(=O)Nc2ccccc2)c(Cl)c1
inactive: dose: 100.0 mg/kg/injection, schedule: Q04DX002 (ip), vehicle: saline + alcohol 92 % of control | dose: 200.0 mg/kg/injection, schedule: Q04DX002 (ip), vehicle: saline + alcohol 92 % of control

CC1CCCC2OC(=O)C(C(N)=O)C12 (centres undefined)
inactive: [6] 95 % of control | [16] 100 % of control | [17] 97 % of control

C/C(CC(C)C)=N/Nc1nc(C)cc(=O)[nH]1
inactive: [7] 92 % of control | [2] 105 % of control | [8] 97 % of control | [3] 100 % of control | [4] 92 % of control

Cc1nc(N)[nH]c(=O)c1CCCCCN
inactive: [10] 101 % of control | [11] 106 % of control | [12] 100 % of control

COc1ccc(C(=O)N/N=C/C(CC(O)CO)=N/NC(=O)c2ccc(OC)cc2)cc1 (centres undefined)
inactive: [2] 95 % of control | [3] 92 % of control | [4] 96 % of control

COC(=O)C1(C(=O)OC)C=CCCC1=O
inactive: [2] 108 % of control | [3] 107 % of control | [4] 96 % of control

NC(=Nc1ccc([N+](=O)[O-])cc1)c1ccc(C(N)=Nc2ccc([N+](=O)[O-])cc2)cc1
inactive: dose: 6.25 mg/kg/injection, schedule: Q01DX015 (ip), vehicle: methylcellulose (MC) 102 % of control | dose: 12.5 mg/kg/injection, schedule: Q01DX015 (ip), vehicle: methylcellulose (MC) 100 % of control | dose: 25.0 mg/kg/injection, schedule: Q01DX015 (ip), vehicle: methylcellulose (MC) 96 % of control | dose: 50.0 mg/kg/injection, schedule: Q01DX015 (ip), vehicle: methylcellulose (MC) 93 % of control | dose: 62.5 mg/kg/injection, schedule: Q01DX015 (ip), vehicle: methylcellulose (MC) 90 % of control

O=C1CCCCC1Nc1ccc(Br)cc1 (centres undefined)
inactive: [6] 98 % of control | [16] 98 % of control | [17] 98 % of control

CSc1nc(NC(=O)CCl)cc(=O)[nH]1
inactive: [1] 93 % of control and 97 % of control and 89 % of control | [7] 97 % of control and 89 % of control | [2] 90 % of control | [3] 98 % of control | [4] 102 % of control

CCOC(=O)COC
inactive: dose: 50.0 mg/kg/injection, schedule: Q01DX009 (ip), vehicle: saline 100 % of control | dose: 100.0 mg/kg/injection, schedule: Q01DX009 (ip), vehicle: saline 96 % of control | dose: 200.0 mg/kg/injection, schedule: Q01DX009 (ip), vehicle: saline 89 % of control

NC(=O)C(CCCN=C(N)N)NC(=O)CNC(=O)C(N)CO (stereo not drawn) (H-Ser-Gly-Arg-NH2; configuration not given here)
inactive: dose: 25.0 mg/kg/injection, schedule: Q04DX002 (ip), vehicle: Klucel (hydroxypropylcellulose) (HPC) 103 % of control | dose: 50.0 mg/kg/injection, schedule: Q04DX002 (ip), vehicle: Klucel (hydroxypropylcellulose) (HPC) 106 % of control | [5] 100 % of control

COc1cc2c(cc1OC)C(Cc1ccc([N+](=O)[O-])cc1)=[N+](C)CC2
inactive: [13] 103 % of control | [14] 105 % of control | [15] 108 % of control

CC(=O)Nc1cccc(-c2nnc(C3CCCC(NC(C)=O)C3)nn2)c1 (centres undefined)
inactive: [6] 96 % of control | [16] 88 % of control | [17] 88 % of control

CC(=N)N
inactive: [10] 114 % of control | [11] 90 % of control | [12] 111 % of control

Source: PubChem BioAssay AID248 (DTP/NCI, 2004)
